According to US8940740B2, “Small molecule inhibitors of bacterial motility and a high throughput screening assay for their identification” (priority 2010, dated 2015):
Converted amounts (≈) assume the structure as drawn.

Key:
[1] = test system: Vibrio cholerae strain C7258; experiment: Bacterial motility in 384-well soft agar HTS assay, off-site OD615 reading; assay type: cell-based; settings: for IC50: Vibrio cholerae, C7258, inhibition of bacterial motility, optical density read off-site from inoculation point, read-out: Motility OD IC50; for Control average OD615 in pilot screen: pilot screen control wells
[2] = test system: Vibrio cholerae strain C7258; experiment: Bacterial viability/toxicity readout with alamarBlue in 384-well soft agar HTS assay; assay type: cell-based; settings: for IC50: Vibrio cholerae, C7258, toxicity of compound to bacteria as measured by alamarBlue, read-out: Inhibition IC50
[3] = test system: Vibrio cholerae strain C7258; experiment: Growth with PMF blocked by CCCP (Na+ bioenergetics); assay type: cell-based; settings: LB pH 8.6, 0.3 M NaCl, CCCP 5 μM, Q24DA 10 μg/mL
[4] = test system: Vibrio cholerae strain C7258; experiment: Growth of strain C7258 in broth containing test compound; assay type: cell-based; settings: strain C7258, LB medium; Q24DA 10 μg/mL (FIG. 2)
[5] = test system: V. cholerae biofilm formation; assay type: cell-based, Vibrio cholerae
[6] = test system: polar flagellum / flagellin FlaA of V. cholerae strain C7258; experiment: Flagellum assembly by transmission electron microscopy and FlaA western blot; assay type: cell-based, Vibrio cholerae
[7] = test system: V. cholerae 0395, V. parahaemolyticus, V. vulnificus; experiment: Swarm agar plates with different pathogenic Vibrios; assay type: cell-based, Vibrio; settings: polar (SMF) vs lateral (PMF) flagellum
Text: V. cholerae and V. vulnificus make a single polar flagellum (Fla) powered by sodium motive force (SMF). […] (A) V. cholerae 0395; (B) V. parahaemolyticus B22 (Fla^+ Laf^+); (C) V. parahaemolyticus LM5674 (Fla^+ Laf^+); (D) V. parahaemolyticus LM1017 (Fla^+ Laf^−); (E) V. parahaemolyticus LM5392 (Fla^− Laf^+); (F) V. parahaemolyticus 7890 (Fla^+ Laf^−); (G) V. vulnificus LAM624.

[8] = test system: Vibrio cholerae strain C7258; experiment: Swarm agar plates stabbed with saturated cultures; assay type: cell-based; settings: swarm agar stabbed with saturated culture of strain C7258
[9] = test system: cholera toxin and toxin-co-regulated pilus production by strain C7258; assay type: cell-based, Vibrio cholerae
[10] = assay validation, phenamil at 100 μM

| Compound | IC50 [1] [mg/L] | IC50 [2] [mg/L] | also measured |
| --- | --- | --- | --- |
| OCCNc1nc(NCCc2cccs2)nc2ccccc12 [compound 27917] | 19.7 (≈ 62.7 µM) | 27 (≈ 85.9 µM) |  |
| OCCNc1nc(Nc2ccccc2O)nc2ccccc12 [compound 27911] | 29.5 (≈ 99.7 µM) | 34.2 (≈ 116 µM) |  |
| OCCNc1nc(Nc2ccc3c(c2)OCO3)nc2ccccc12 [compound 27919] | 10.8 (≈ 33.2 µM) | 29.8 (≈ 91.8 µM) |  |
| Oc1ccccc1Nc1nc(NCc2ccco2)c2ccccc2n1 [compound 27297] | 37.8 (≈ 114 µM) | 81.9 (≈ 246 µM) |  |
| COc1ccccc1Nc1nc(NCCO)c2ccccc2n1 [compound 27916] | 49.5 (≈ 159 µM) | 38.1 (≈ 123 µM) |  |
| OCCNc1nc(Nc2ccccc2F)nc2ccccc12 [compound 27912] | 4.89 (≈ 16.4 µM) | 14.4 (≈ 48.4 µM) |  |
| Cc1ccc(Nc2nc(NCCO)c3ccccc3n2)c(C)c1 [compound 27918] | 6.1 (≈ 19.8 µM) | 15.6 (≈ 50.4 µM) |  |
| Cc1cc(C)cc(Nc2nc(NCCO)c3ccccc3n2)c1 [compound 27914] | 6.96 (≈ 22.6 µM) | 10.1 (≈ 32.6 µM) |  |
| c1ccc(CN2CCN(c3nc(NCc4ccco4)c4ccccc4n3)CC2)cc1 [compound 27307] | 34.9 (≈ 87.3 µM) | 37.9 (≈ 94.8 µM) |  |
| COc1ccc(C)cc1Nc1nc(N)c2ccccc2n1 [compound 27284] | 81.2 (≈ 290 µM) | > 100 |  |
| Cc1cc(C)cc(Nc2nc(NCC3CCCO3)c3ccccc3n2)c1 (stereo not drawn) [compound 27929] | 6.89 (≈ 19.8 µM) | 6.11 (≈ 17.5 µM) |  |
| Cc1ccc(Nc2nc(NCc3ccco3)c3ccccc3n2)cc1 [compound 27296] | 3.77 (≈ 11.4 µM) | 11.1 (≈ 33.5 µM) |  |
| CN(C)[C@@H]1C(O)=C(C(N)=O)C(=O)[C@@]2(O)C(O)=C3C(=O)c4c(O)cccc4[C@@](C)(O)[C@H]3C[C@@H]12 [tetracycline, reference compound] |  |  | Control average OD615 in pilot screen [1]: Ave-0.10 OD615, CV-3.6 |
| OCCNc1nc(Nc2cccc(O)c2)nc2ccccc12 [compound 27910] | 22.2 (≈ 74.8 µM) | 47 (≈ 159 µM) |  |
| COc1ccc(Nc2nc(N3CCCC3)nc3ccccc23)c(OC)c1 [compound 27301] | 46.6 (≈ 133 µM) | 82 (≈ 234 µM) |  |
| Fc1ccccc1Nc1nc(NCc2ccccc2)c2ccccc2n1 [compound 27299] | 6.37 (≈ 18.5 µM) | 100 (≈ 290 µM) |  |
| c1coc(CNc2nc(NCC3CCCO3)c3ccccc3n2)c1 (stereo not drawn) [compound 27926] | 24.7 (≈ 76.2 µM) | 35.6 (≈ 110 µM) |  |
| O=[N+]([O-])c1ccc(N2CCN(c3nc(N4CCN(CCO)CC4)nc4ccccc34)CC2)cc1 [compound 27310] | 77.2 (≈ 167 µM) | 55.4 (≈ 120 µM) |  |
| FC(F)(F)c1cccc(Nc2nc(NCC3CCCO3)c3ccccc3n2)c1 (stereo not drawn) [compound 27930] | 7.59 (≈ 19.5 µM) | 81.2 (≈ 209 µM) |  |
| NC(=Nc1ccccc1)NC(=O)c1nc(Cl)c(N)nc1N [phenamil, reference compound] |  |  | Effect on motility (OD615 reading) [1, 10]: inhibitory effect on motility; Control average OD615 in pilot screen [1]: Ave-0.10 OD615, CV-3.2; Effect on viability (alamarBlue reading) [2, 10]: little effect on viability |
| Oc1ccccc1Nc1nc(NCC2CCCO2)c2ccccc2n1 (stereo not drawn) [compound 27928] | 16.5 (≈ 49 µM) | 19.4 (≈ 57.6 µM) |  |
| Cc1ccc(C)c(Nc2nc(NCCO)c3ccccc3n2)c1 [AB00343282] | 8.76 (≈ 28.4 µM) | 25.7 (≈ 83.2 µM) | Effect on growth inhibition by blocking the PMF [3]: enhances the inhibitory effect of blocking the PMF; Effect on growth rate in broth [4]: no effect on growth rate; Biofilm formation [5]: negative effect on biofilm formation; Level of expression of major flagellin protein FlaA ([6]; Western blot analysis): nor did it affect; Expression, secretion and assembly of wild type flagellum ([6]; transmission electron microscopy): does not inhibit; Flagellum specificity among pathogenic Vibrios [7]: specific for the polar flagellum powered by SMF; Motility in swarm agar (spread from inoculation site) ([8]; listed as Q24DA): motility inhibition; Motility in swarm agar (spread from inoculation site) ([8]; listed as quinazoline 2,4 diamine): completely abolished motility; V. cholerae virulence gene expression [9]: inhibits V. cholerae virulence gene expression |
| OCCNc1nc(NCc2ccco2)nc2ccccc12 [compound 27908] | 45.6 (≈ 160 µM) | > 100 |  |
| Cc1ccc(O)c(Nc2nc(NCCO)c3ccccc3n2)c1 [compound 27915] | 29.9 (≈ 96.2 µM) | 23 (≈ 74.2 µM) |  |
